{"source": "patent US12655156B2", "about": "“Oxadiazolopyrazines and oxadiazolopyridines useful as mitochondrial uncouplers” (Virginia Tech Intellectual Properties, Inc., priority 2018, dated 2026)", "note": "pEC50: −log10 of the molar value.", "data": [{"tested_on": "whole cells (NMuLi, C2C12, and L6 cells, isolated cardiomyocytes, human primary fibroblasts)", "assay": "Oxygen consumption rate (OCR) in whole cells, Seahorse XF-24 Flux Analyzer", "assay_type": "cell-based", "settings": "increase in OCR; binned EC50 values", "description": "Biological activities of the compounds synthesized is determined by determining increase in oxygen consumption rate (OCR).\nOxygen consumption rate (OCR) in whole cells is measured in general accordance with the method of Kenwood B M et al. (Mol. Met. (2014) 3:114-123).\nOCR is measured using a Seahorse XF-24 Flux Analyzer (Seahorse Biosciences, North Billerica, MA). NMuLi, C2C12, and L6 cells are seeded in a Seahorse 24-well tissue culture plate at a density of 3.5×10^4 cells/well, isolated cardiomyocytes at a density of 4×10^4 cells/well, and human primary fibroblasts at a density of 1.1×10^4 cells/well. The cells are then allowed to adhere for 24 h. Prior to the assay, the media is changed to unbuffered DMEM containing pyruvate and glutamine (Gibco #12800-017, pH=7.4 at 37° C.) and the cells are equilibrated for 30 mins at 37°° C. Compounds are injected during the assay and OCR is measured using 2 min measurement periods.\n2-3 wells are used per condition and averaged over three plates (n=6-9). Statistical significance is determined by two-way ANOVA with Bonferroni's posttest.\nActivities are reported as binned EC50 values: A=5 μM or less; B=>5 to 20 μM; C=over 20 μM; NA=not active.", "values": [{"molecule": "CC(=O)COc1nc2nonc2nc1Nc1ccc(-c2ccc(F)cc2)cc1", "note": "[1-190, 1-((6-((4′-fluoro-[1,1′-biphenyl]-4-yl)amino)-[1,2,5]oxadiazolo[3,4-b]pyrazin-5-yl)oxy)propan-2-one]", "pEC50": "≥ 5.30"}, {"molecule": "Oc1nc2nonc2nc1Nc1cccc(S(F)(F)(F)(F)F)c1", "note": "[1-31, 6-((3-(Pentafluoro-16-sulfaneyl)phenyl)amino)-[1,2,5]oxadiazolo[3,4-b]pyrazin-5-ol]", "pEC50": "≥ 5.30"}, {"molecule": "Oc1nc2nonc2nc1Nc1ccc(-c2ccccc2)cc1", "note": "[1-103, 6-([1,1′-biphenyl]-4-ylamino)-[1,2,5]oxadiazolo[3,4-b]pyrazin-5-ol]", "pEC50": "≥ 5.30"}, {"molecule": "Oc1nc2nonc2nc1Nc1ccc(-c2cccs2)cc1", "note": "[1-106, 6-((4-(thiophen-2-yl)phenyl)amino)-[1,2,5]oxadiazolo[3,4-b]pyrazin-5-ol]", "pEC50": "4.70 to 5.30"}, {"molecule": "Oc1nc2nonc2nc1Nc1ccc(OC(F)(F)F)cc1Br", "note": "[1-38, 6-((2-Bromo-4-(trifluoromethoxy)phenyl)amino)-[1,2,5]oxadiazolo[3,4-b]pyrazin-5-ol]", "pEC50": "≥ 5.30"}, {"molecule": "CC(C)(C)c1ccc(Nc2nc3nonc3nc2O)cc1", "note": "[1-51, 6-((4-(tert-Butyl)phenyl)amino)-[1,2,5]oxadiazolo[3,4-b]pyrazin-5-ol]", "pEC50": "≥ 5.30"}, {"molecule": "Oc1nc2nonc2nc1Nc1cccc(-c2ccc(Cl)cc2)c1", "note": "[1-133, 6-((4′-chloro-[1,1′-biphenyl]-3-yl)amino)-[1,2,5]oxadiazolo[3,4-b]pyrazin-5-ol]", "pEC50": "≥ 5.30"}, {"molecule": "Oc1nc2nonc2nc1Nc1ccccc1OC(F)(F)F", "note": "[1-8, 6-((2-(Trifluoromethoxy)phenyl)amino)-[1,2,5]oxadiazolo[3,4-b]pyrazin-5-ol]", "pEC50": "≥ 5.30"}, {"molecule": "Oc1nc2nonc2nc1Nc1cc(F)cc(F)c1", "note": "[1-15, 6-((3,5-Difluorophenyl)amino)-[1,2,5]oxadiazolo[3,4-b]pyrazin-5-ol]", "pEC50": "4.70 to 5.30"}, {"molecule": "CCc1cccc(Nc2nc3nonc3nc2O)c1", "note": "[1-46, 6-((3-Ethylphenyl)amino)-[1,2,5]oxadiazolo[3,4-b]pyrazin-5-ol]", "pEC50": "4.70 to 5.30"}, {"molecule": "Oc1nc2nonc2nc1Nc1cccc(OC(F)(F)F)c1", "note": "[1-9, 6-((3-(Trifluoromethoxy)phenyl)amino)-[1,2,5]oxadiazolo[3,4-b]pyrazin-5-ol]", "pEC50": "≥ 5.30"}, {"molecule": "Oc1nc2nonc2nc1Nc1cc(C(F)(F)F)cc(C(F)(F)F)c1", "note": "[1-34, 6-((3,5-Bis(trifluoromethyl)phenyl)amino)-[1,2,5]oxadiazolo[3,4-b]pyrazin-5-ol]", "pEC50": "4.70 to 5.30"}, {"molecule": "Cc1cccc(C)c1Nc1nc2nonc2nc1O", "note": "[1-56, 6-((2,6-Dimethylphenyl)amino)-[1,2,5]oxadiazolo[3,4-b]pyrazin-5-ol]", "pEC50": "≥ 5.30"}, {"molecule": "Oc1nc2nonc2cc1Nc1cccc(OC(F)(F)F)c1", "note": "[1-229, 6-((3-(trifluoromethoxy)phenyl)amino)-[1,2,5]oxadiazolo[3,4-b]pyridin-5-ol]", "pEC50": "4.70 to 5.30"}, {"molecule": "COc1cccc(-c2ccc(Nc3nc4nonc4nc3O)cc2)c1", "note": "[1-137, 6-((3′-methoxy-[1,1′-biphenyl]-4-yl)amino)-[1,2,5]oxadiazolo[3,4-b]pyrazin-5-ol]", "pEC50": "≥ 5.30"}, {"molecule": "Oc1nc2nonc2nc1NC(c1ccccc1)c1ccccc1", "note": "[1-79, 6-(benzhydrylamino)-[1,2,5]oxadiazolo[3,4-b]pyrazin-5-ol]", "pEC50": "< 4.70"}, {"molecule": "Oc1nc2nonc2nc1Nc1ccc(OC(F)(F)F)cc1F", "note": "[1-36, 6-((2-Fluoro-4-(trifluoromethoxy)phenyl)amino)-[1,2,5]oxadiazolo[3,4-b]pyrazin-5-ol]", "pEC50": "≥ 5.30"}, {"molecule": "Oc1nc2nonc2nc1Nc1ccc(C(F)(F)F)cc1", "note": "[1-7, 6-((4-(Trifluoromethyl)phenyl)amino)-[1,2,5]oxadiazolo[3,4-b]pyrazin-5-ol]", "pEC50": "4.70 to 5.30"}, {"molecule": "Oc1nc2nonc2nc1Nc1ccc(OC(F)(F)Cl)cc1", "note": "[1-29, 6-((4-(Chlorodifluoromethoxy)phenyl)amino)-[1,2,5]oxadiazolo[3,4-b]pyrazin-5-ol]", "pEC50": "≥ 5.30"}, {"molecule": "Oc1nc2nonc2nc1Nc1ccc(C(F)(F)F)cc1F", "note": "[1-16, 6-((2-Fluoro-4-(trifluoromethyl)phenyl)amino)-[1,2,5]oxadiazolo[3,4-b]pyrazin-5-ol]", "pEC50": "≥ 5.30"}, {"molecule": "Oc1nc2nonc2nc1Nc1ccc(-c2ccc(C(F)(F)F)cc2)cc1", "note": "[1-130, 6-((4′-(trifluoromethyl)-[1,1′-biphenyl]-4-yl)amino)-[1,2,5]oxadiazolo[3,4-b]pyrazin-5-ol]", "pEC50": "4.70 to 5.30"}, {"molecule": "Oc1nc2nonc2nc1Nc1ccc(C(O)(C(F)(F)F)C(F)(F)F)cc1", "note": "[1-26, 6-((4-(1,1,1,3,3,3-Hexafluoro-2-hydroxypropan-2-yl)phenyl)amino)-[1,2,5]oxadiazolo[3,4-b]pyrazin-5-ol]", "pEC50": "< 4.70"}, {"molecule": "CCCCCc1ccc(Nc2nc3nonc3nc2O)c(F)c1", "note": "[1-66, 6-((2-Fluoro-4-pentylphenyl)amino)-[1,2,5]oxadiazolo[3,4-b]pyrazin-5-ol]", "pEC50": "≥ 5.30"}, {"molecule": "Oc1nc2nonc2nc1Nc1ccc(OC(F)(F)F)c(Cl)c1", "note": "[1-24, 6-((3-Chloro-4-(trifluoromethoxy)phenyl)amino)-[1,2,5]oxadiazolo[3,4-b]pyrazin-5-ol]", "pEC50": "≥ 5.30"}, {"molecule": "Oc1nc2nonc2cc1Nc1cc(C(F)(F)F)cc(C(F)(F)F)c1", "note": "[1-243, 6-((3,5-bis(trifluoromethyl)phenyl)amino)-[1,2,5]oxadiazolo[3,4-b]pyridin-5-ol]", "pEC50": "≥ 5.30"}, {"molecule": "O=C(Nc1nc2nonc2nc1OCc1ccccc1)c1ccc(C(F)(F)F)cc1", "note": "[1-196, N-(6-(benzyloxy)-[1,2,5]oxadiazolo[3,4-b]pyrazin-5-yl)-4-(trifluoromethyl)benzamide]", "pEC50": "4.70 to 5.30"}, {"molecule": "Cc1cc(OC(F)(F)F)ccc1Nc1nc2nonc2nc1O", "note": "[1-32, 6-((2-Methyl-4-(trifluoromethoxy)phenyl)amino)-[1,2,5]oxadiazolo[3,4-b]pyrazin-5-ol]", "pEC50": "≥ 5.30"}, {"molecule": "CCCCC#Cc1ccc(Nc2nc3nonc3nc2O)c(OC(F)(F)F)c1", "note": "[1-65, 6-((4-(Hex-1-yn-1-yl)-2-(trifluoromethoxy)phenyl)amino)-[1,2,5]oxadiazolo[3,4-b]pyrazin-5-ol]", "pEC50": "4.70 to 5.30"}, {"molecule": "COc1cc(OC(F)(F)F)ccc1Nc1nc2nonc2nc1O", "note": "[1-22, 6-((2-Methoxy-4-(trifluoromethoxy)phenyl)amino)-[1,2,5]oxadiazolo[3,4-b]pyrazin-5-ol]", "pEC50": "≥ 5.30"}, {"molecule": "Oc1nc2nonc2nc1Nc1cccc(-c2ccc(C(F)(F)F)cc2)c1", "note": "[1-131, 6-((4′-(trifluoromethyl)-[1,1′-biphenyl]-3-yl)amino)-[1,2,5]oxadiazolo[3,4-b]pyrazin-5-ol]", "pEC50": "≥ 5.30"}, {"molecule": "CCCC#Cc1ccc(Nc2nc3nonc3nc2O)c(F)c1", "note": "[1-62, 6-((2-Fluoro-4-(pent-1-yn-1-yl)phenyl)amino)-[1,2,5]oxadiazolo[3,4-b]pyrazin-5-ol]", "pEC50": "≥ 5.30"}, {"molecule": "CCCCc1ccc(Nc2nc3nonc3nc2O)cc1", "note": "[1-54, 6-((4-Butylphenyl)amino)-[1,2,5]oxadiazolo[3,4-b]pyrazin-5-ol]", "pEC50": "≥ 5.30"}, {"molecule": "CCCCCCc1ccc(Nc2nc3nonc3nc2O)c(F)c1", "note": "[1-67, 6-((2-Fluoro-4-hexylphenyl)amino)-[1,2,5]oxadiazolo[3,4-b]pyrazin-5-ol]", "pEC50": "≥ 5.30"}, {"molecule": "Oc1nc2nonc2nc1Nc1cccc(-c2ccc(OC(F)F)cc2)c1", "note": "[1-113, 6-((4′-(difluoromethoxy)-[1,1′-biphenyl]-3-yl)amino)-[1,2,5]oxadiazolo[3,4-b]pyrazin-5-ol]", "pEC50": "≥ 5.30"}, {"molecule": "CCCC#Cc1ccc(Nc2nc3nonc3nc2O)c(OC(F)(F)F)c1", "note": "[1-64, 6-((4-(Pent-1-yn-1-yl)-2-(trifluoromethoxy)phenyl)amino)-[1,2,5]oxadiazolo[3,4-b]pyrazin-5-ol]", "pEC50": "≥ 5.30"}, {"molecule": "Oc1nc2nonc2nc1Nc1ccc(OC(F)(F)F)cc1Cl", "note": "[1-41, 6-((2-Chloro-4-(trifluoromethoxy)phenyl)amino)-[1,2,5]oxadiazolo[3,4-b]pyrazin-5-ol]", "pEC50": "≥ 5.30"}, {"molecule": "Oc1nc2nonc2nc1Nc1ccc(OC(F)(F)F)c(F)c1", "note": "[1-11, 6-((3-Fluoro-4-(trifluoromethoxy)phenyl)amino)-[1,2,5]oxadiazolo[3,4-b]pyrazin-5-ol]", "pEC50": "≥ 5.30"}, {"molecule": "CCCCCCc1ccc(Nc2nc3nonc3nc2O)cc1", "note": "[1-72, 6-((4-hexylphenyl)amino)-[1,2,5]oxadiazolo[3,4-b]pyrazin-5-ol]", "pEC50": "4.70 to 5.30"}, {"molecule": "Oc1nc2nonc2nc1Nc1ccc(OCC(F)(F)F)cc1", "note": "[1-88, 6-((4-(2,2,2-Trifluoroethoxy)phenyl)amino)-[1,2,5]oxadiazolo[3,4-b]pyrazin-5-ol]", "pEC50": "< 4.70"}, {"molecule": "Oc1nc2nonc2nc1Nc1ccc(-c2ccc(OC(F)F)cc2)cc1", "note": "[1-108, 6-((4′-(difluoromethoxy)-[1,1′-biphenyl]-4-yl)amino)-[1,2,5]oxadiazolo[3,4-b]pyrazin-5-ol]", "pEC50": "≥ 5.30"}, {"molecule": "O=C(COc1cccc(Nc2nc3nonc3nc2O)c1)c1ccc(OC(F)(F)F)cc1", "note": "[1-98, 2-(3-((6-hydroxy-[1,2,5]oxadiazolo[3,4-b]pyrazin-5-yl)amino)phenoxy)-1-(4-(trifluoromethoxy)phenyl)ethan-1-one]", "pEC50": "4.70 to 5.30"}, {"molecule": "COc1cc(-c2ccc(Nc3nc4nonc4nc3O)cc2)ccc1F", "note": "[1-128, 6-((4′-fluoro-3′-methoxy-[1,1′-biphenyl]-4-yl)amino)-[1,2,5]oxadiazolo[3,4-b]pyrazin-5-ol]", "pEC50": "< 4.70"}, {"molecule": "Oc1nc2nonc2nc1Nc1ccc(OCCCC(F)(F)F)c(F)c1", "note": "[1-99, 6-((3-fluoro-4-(4,4,4-trifluorobutoxy)phenyl)amino)-[1,2,5]oxadiazolo[3,4-b]pyrazin-5-ol]", "pEC50": "≥ 5.30"}]}]}
